Experimental data reported in US8217043B2, “Compounds and methods for their use” (Fibrogen, Inc., priority 2008, dated 2012).

Molecular target: T1, HIF-PH2 (EGLN1) (Homo sapiens, UniProt Q9GZT9)
T1 construct: made in house; host or cells: insect Hi5 cells
Assay: HIF-PH assay (14CO2 capture, peptide-dependent turnover)
Type: biochemical
Conditions: for inhibition at 200 µM: Concentration 200 μM; for inhibition at 50 µM: Concentration 50 μM; for inhibition at 67 µM: Concentration 67 μM
From the text: Ketoglutaric acid α-[1-^14C]-sodium salt, alpha-ketoglutaric acid sodium salt, and HPLC purified peptide may be obtained from commercial sources, e.g., Perkin-Elmer (Wellesley Mass.), Sigma-Aldrich, and SynPep Corp. (Dublin Calif.), respectively. Peptides for use in the assay may be fragments of HIFα as described above or as disclosed in International Publication WO 2005/118836, incorporated by reference herein. HIF-PH, e.g., HIF-PH2 (EGLN1), can be expressed in, e.g., insect Hi5 cells, and partially purified, e.g., through a SP ion exchange chromatography column. Enzyme activity is determined by capturing ^14CO2 using an assay described by Kivirikko and Myllyla (1982, Methods Enzymol. 82:245-304). Assay reactions contain 50 mM HEPES (pH 7.4), 100 μM α-ketoglutaric acid sodium salt, 0.30 μCi/mL ketoglutaric acid α-[1-^14C]-sodium salt, 40 μM FeSO4, 1 mM ascorbate, 1541.8 units/mL Catalase, with or without 50 μM peptide substrate and various concentrations of compound of the invention. Reactions are initiated by addition of HIF-PH enzyme.
The peptide-dependent percent turnover is calculated by subtracting percent turnover in the absence of peptide from percent turnover in the presence of substrate peptide. Percent inhibition and IC50 are calculated using peptide-dependent percent turnover at given inhibitor concentrations. Calculation of IC50 values for each inhibitor is conducted using GraFit software (Erithacus Software Ltd., Surrey UK).
Representative compounds of the invention were analyzed using the HIF-PH assay described above. Table 1 presents enzyme inhibition data for exemplary compounds against HIF-PH2, a representative HIF prolyl hydroxylase. By inhibiting HIF prolyl hydroxylase, compounds of the invention stabilize HIFα, which then combines with HIFβ to form an active transcription factor that increases expression of various genes involved in numerous beneficial cellular processes.

T1 sequence (Q9GZT9 whole entry, species assumed): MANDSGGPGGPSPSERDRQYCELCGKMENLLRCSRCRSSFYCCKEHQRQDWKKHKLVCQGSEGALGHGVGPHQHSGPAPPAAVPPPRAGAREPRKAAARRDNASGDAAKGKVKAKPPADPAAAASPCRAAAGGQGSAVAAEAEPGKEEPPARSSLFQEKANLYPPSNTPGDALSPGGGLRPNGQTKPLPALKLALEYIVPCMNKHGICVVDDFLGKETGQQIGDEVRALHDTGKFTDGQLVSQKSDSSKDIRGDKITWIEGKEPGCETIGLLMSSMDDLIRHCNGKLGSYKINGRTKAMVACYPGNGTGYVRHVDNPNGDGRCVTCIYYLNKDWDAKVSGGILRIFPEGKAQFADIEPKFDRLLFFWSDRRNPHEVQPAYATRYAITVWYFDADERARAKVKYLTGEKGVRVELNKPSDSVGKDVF

Compound	inhibition at 50 µM	inhibition at 67 µM	further results
O=C(O)CNC(=O)c1c(O)c2cccn2n(Cc2ccccc2)c1=O [Example 1, [(1-Benzyl-4-hydroxy-2-oxo-1,2-dihydro-pyrrolo[1,2-b]pyridazine-3-carbonyl)-amino]-acetic acid]			inhibition at 200 µM: 100%
O=C(O)CNC(=O)c1c(O)c2cccn2n(Cc2ccc(F)cc2)c1=O [Example 3, {[1-(4-Fluoro-benzyl)-4-hydroxy-2-oxo-1,2-dihydro-pyrrolo[1,2-b]pyridazine-3-carbonyl]-amino}-acetic acid]			inhibition at 200 µM: 100%
O=C(O)CNC(=O)c1c(O)c2cccn2n(Cc2ccc(F)cc2F)c1=O [Example 6, {[1-(2,4-Difluoro-benzyl)-4-hydroxy-2-oxo-1,2-dihydro-pyrrolo[1,2-b]pyridazine-3-carbonyl]-amino}-acetic acid]			inhibition at 200 µM: 100%
O=C(O)CNC(=O)c1c(O)c2cc3cc(F)ccc3n2n(Cc2ccc(F)cc2)c1=O [Example 21, {[7-Fluoro-4-(4-fluoro-benzyl)-1-hydroxy-3-oxo-3,4-dihydro-4,4a-diaza-fluorene-2-carbonyl]-amino}-acetic acid]	99%		
C[C@H](NC(=O)c1c(O)c2cc3ccccc3n2n(Cc2ccc(F)cc2)c1=O)C(=O)O [Example 19, 2-(S)-{[4-(4-Fluoro-benzyl)-1-hydroxy-3-oxo-3,4-dihydro-4,4a-diaza-fluorene-2-carbonyl]-amino}-propionic acid]	99%		
COc1ccc(Cn2c(=O)c(C(=O)NCC(=O)O)c(O)c3cccn32)cc1 [Example 12, {[1-(4-Methoxy-benzyl)-4-hydroxy-2-oxo-1,2-dihydro-pyrrolo[1,2-b]pyridazine-3-carbonyl]-amino}-acetic acid]			inhibition at 200 µM: 100%
CC[C@H](NC(=O)c1c(O)c2cc(Cl)cn2n(Cc2ccc(F)cc2)c1=O)C(=O)O [Example 34, 2-(S)-{[6-Chloro-1-(4-fluoro-benzyl)-4-hydroxy-2-oxo-1,2-dihydro-pyrrolo[1,2-b]pyridazine-3-carbonyl]-amino}-butyric acid]		86%	
C[C@H](NC(=O)c1c(O)c2cccn2n(Cc2ccc(C(F)(F)F)cc2)c1=O)C(=O)O [Example 24, 2-(S)-{[4-Hydroxy-2-oxo-1-(4-trifluoromethyl-benzyl)-1,2-dihydro-pyrrolo[1,2-b]pyridazine-3-carbonyl]-amino}-propionic acid]	98%		
COc1ccc(Cn2c(=O)c(C(=O)N[C@@H](C)C(=O)O)c(O)c3cc(Cl)cn32)cc1 [Example 32, 2-(S)-{[6-Chloro-1-(4-methoxy-benzyl)-4-hydroxy-2-oxo-1,2-dihydro-pyrrolo[1,2-b]pyridazine-3-carbonyl]-amino}-propionic acid]		97%	
O=C(O)CNC(=O)c1c(O)c2cccn2n(Cc2ccccc2Cl)c1=O [Example 7, {[1-(2-Chloro-benzyl)-4-hydroxy-2-oxo-1,2-dihydro-pyrrolo[1,2-b]pyridazine-3-carbonyl]-amino}-acetic acid]			inhibition at 200 µM: 100%
C[C@H](NC(=O)c1c(O)c2cc(Cl)cn2n(Cc2cccnc2)c1=O)C(=O)O [Example 39, 2-(S)-[(6-Chloro-4-hydroxy-2-oxo-1-pyridin-3-ylmethyl-1,2-dihydro-pyrrolo[1,2-b]pyridazine-3-carbonyl)-amino]-propionic acid]		97%	
O=C(O)CNC(=O)c1c(O)c2cccn2n(Cc2c(F)cccc2F)c1=O [Example 15, {[1-(2,6-Difluoro-benzyl)-4-hydroxy-2-oxo-1,2-dihydro-pyrrolo[1,2-b]pyridazine-3-carbonyl]-amino}-acetic acid]			inhibition at 125 µM (Concentration 125 μM): 94%
C[C@H](NC(=O)c1c(O)c2cc(Cl)cn2n(Cc2ccc(C(F)(F)F)cc2)c1=O)C(=O)O [Example 23, 2-(S)-{[6-Chloro-4-hydroxy-2-oxo-1-(4-trifluoromethyl-benzyl)-1,2-dihydro-pyrrolo[1,2-b]pyridazine-3-carbonyl]-amino}-propionic acid]	98%		
O=C(O)CNC(=O)c1c(O)c2cc(Cl)cn2n(Cc2ccc(C(F)(F)F)cc2)c1=O [Example 22, {[6-Chloro-4-hydroxy-2-oxo-1-(4-trifluoromethyl-benzyl)-1,2-dihydro-pyrrolo[1,2-b]pyridazine-3-carbonyl]-amino}-acetic acid]	98%		
C[C@@H](NC(=O)c1c(O)c2cc(Cl)cn2n(Cc2ccc(-c3ccccc3)cc2)c1=O)C(=O)O [Example 36, 2-(R)-{[6-Chloro-1-(4-phenyl-benzyl)-4-hydroxy-2-oxo-1,2-dihydro-pyrrolo[1,2-b]pyridazine-3-carbonyl]-amino}-propionic acid]		98%	
CC[C@H](NC(=O)c1c(O)c2cccn2n(Cc2ccc(C(F)(F)F)cc2)c1=O)C(=O)O [Example 25, 2-(S)-{[4-Hydroxy-2-oxo-1-(4-trifluoromethyl-benzyl)-1,2-dihydro-pyrrolo[1,2-b]pyridazine-3-carbonyl]-amino}-butyric acid]			inhibition at 200 µM: 98%
C[C@H](NC(=O)c1c(O)c2cc(Cl)cn2n(Cc2ccc(F)cc2)c1=O)C(=O)O [Example 27, 2-(S)-{[6-Chloro-1-(4-fluoro-benzyl)-4-hydroxy-2-oxo-1,2-dihydro-pyrrolo[1,2-b]pyridazine-3-carbonyl]-amino}-propionic acid]		95%	
O=C(O)CNC(=O)c1c(O)c2cc(-c3ccccc3)cn2n(Cc2ccc(C(F)(F)F)cc2)c1=O [Example 37, {[4-Hydroxy-2-oxo-6-phenyl-1-(4-trifluoromethyl-benzyl)-1,2-dihydro-pyrrolo[1,2-b]pyridazine-3-carbonyl]-amino}-acetic acid]		99%	
CCCCCCn1c(=O)c(C(=O)NCC(=O)O)c(O)c2cccn21 [Example 20, [(1-Hexyl-4-hydroxy-2-oxo-1,2-dihydro-pyrrolo[1,2-b]pyridazine-3-carbonyl)-amino]-acetic acid]	97%		
O=C(O)CNC(=O)c1c(O)c2cc(Cl)c(Cl)n2n(Cc2ccc(F)cc2)c1=O [Example 42, {[6,7-Dichloro-1-(4-fluoro-benzyl)-4-hydroxy-2-oxo-1,2-dihydro-pyrrolo[1,2-b]pyridazine-3-carbonyl]-amino}-acetic acid]	95%		
C[C@H](NC(=O)c1c(O)c2cc(Cl)cn2n(Cc2ccc(Cl)cc2)c1=O)C(=O)O [Example 29, 2-(S)-{[6-Chloro-1-(4-chloro-benzyl)-4-hydroxy-2-oxo-1,2-dihydro-pyrrolo[1,2-b]pyridazine-3-carbonyl]-amino}-propionic acid]		100%	
O=C(O)CNC(=O)c1c(O)c2cc3ccc(C(F)(F)F)cc3n2n(Cc2ccc(F)cc2)c1=O [Example 43, {[4-(4-Fluoro-benzyl)-1-hydroxy-3-oxo-6-trifluoromethyl-3,4-dihydro-4,4a-diaza-fluorene-2-carbonyl]-amino}-acetic acid]	99%		
COc1ccc(Cn2c(=O)c(C(=O)NCC(=O)O)c(O)c3cc(Cl)cn32)cc1 [Example 31, {[6-Chloro-1-(4-methoxy-benzyl)-4-hydroxy-2-oxo-1,2-dihydro-pyrrolo[1,2-b]pyridazine-3-carbonyl]-amino}-acetic acid]		100%	
C[C@H](NC(=O)c1c(O)c2cc(Cl)cn2n(Cc2ccccn2)c1=O)C(=O)O [Example 41, 2-(S)-[(6-Chloro-4-hydroxy-2-oxo-1-pyridin-2-ylmethyl-1,2-dihydro-pyrrolo[1,2-b]pyridazine-3-carbonyl)-amino]-propionic acid]	91%		
O=C(O)CNC(=O)c1c(O)c2cccn2n(Cc2ccc3ccccc3c2)c1=O [Example 9, [(4-Hydroxy-1-naphthalen-2-ylmethyl-2-oxo-1,2-dihydro-pyrrolo[1,2-b]pyridazine-3-carbonyl)-amino]-acetic acid]			inhibition at 200 µM: 100%

More lines, main results first:

inhibition at 50 µM	inhibition at 67 µM	Compound	further results
97%		CCCCn1c(=O)c(C(=O)NCC(=O)O)c(O)c2cccn21 [Example 17, [(1-Butyl-4-hydroxy-2-oxo-1,2-dihydro-pyrrolo[1,2-b]pyridazine-3-carbonyl)-amino]-acetic acid]	
95%		O=C(O)CNC(=O)c1c(O)c2cc(Cl)cn2n(Cc2ccccn2)c1=O [Example 40, [(6-Chloro-4-hydroxy-2-oxo-1-pyridin-2-ylmethyl-1,2-dihydro-pyrrolo[1,2-b]pyridazine-3-carbonyl)-amino]-acetic acid]	
96%		O=C(O)CNC(=O)c1c(O)c2cc3ccccc3n2n(Cc2ccc(F)cc2)c1=O [Example 18, {[4-(4-Fluoro-benzyl)-1-hydroxy-3-oxo-3,4-dihydro-4,4a-diaza-fluorene-2-carbonyl]-amino}-acetic acid]	
	100%	O=C(O)CNC(=O)c1c(O)c2cc(Cl)cn2n(Cc2ccc(Cl)cc2)c1=O [Example 28, {[6-Chloro-1-(4-chloro-benzyl)-4-hydroxy-2-oxo-1,2-dihydro-pyrrolo[1,2-b]pyridazine-3-carbonyl]-amino}-acetic acid]	
